# Measured values taken from ChEMBL document CHEMBL1909046, “DrugMatrix in vitro pharmacology data”.
# Assays:
# [1] = molecular target: T1, Alpha-2C adrenergic receptor (Homo sapiens, UniProt P18825); test: DRUGMATRIX: Adrenergic Alpha-2C radioligand binding (ligand: [3H] MK-912); assay type: cell membranes, Sf9, Membrane; details: sf9
# T1 sequence (P18825 whole entry): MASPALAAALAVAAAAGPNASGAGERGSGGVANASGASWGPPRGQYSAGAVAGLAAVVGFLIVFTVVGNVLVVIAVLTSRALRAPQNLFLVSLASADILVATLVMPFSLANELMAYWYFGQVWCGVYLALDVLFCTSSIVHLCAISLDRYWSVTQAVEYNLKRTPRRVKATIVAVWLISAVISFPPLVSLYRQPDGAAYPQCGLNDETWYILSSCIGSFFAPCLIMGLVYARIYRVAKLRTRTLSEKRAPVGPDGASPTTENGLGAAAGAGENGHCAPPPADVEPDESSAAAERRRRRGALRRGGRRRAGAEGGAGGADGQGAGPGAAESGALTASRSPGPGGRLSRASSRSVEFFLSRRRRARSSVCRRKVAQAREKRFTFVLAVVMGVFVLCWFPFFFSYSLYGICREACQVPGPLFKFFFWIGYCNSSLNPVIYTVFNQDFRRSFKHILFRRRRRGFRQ
# [2] = molecular target: Beta-2 adrenergic receptor (Homo sapiens, UniProt P07550); test: DRUGMATRIX: Adrenergic beta2 radioligand binding (ligand: [3H] CGP-12177); assay type: cell membranes, CHO, Membrane; details: Not Active = under 50% inhibition at 10 µM
# [3] = molecular target: T2, Nitric oxide synthase, inducible (Mus musculus, UniProt P29477); design: species or system Escherichia coli;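 further: inhibition of iNOS enzyme activity measured with L-arginine as substrate; in other assays of this panel Not Active means under 50% inhibition at 10 µM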
# T2 sequence (P29477 whole entry): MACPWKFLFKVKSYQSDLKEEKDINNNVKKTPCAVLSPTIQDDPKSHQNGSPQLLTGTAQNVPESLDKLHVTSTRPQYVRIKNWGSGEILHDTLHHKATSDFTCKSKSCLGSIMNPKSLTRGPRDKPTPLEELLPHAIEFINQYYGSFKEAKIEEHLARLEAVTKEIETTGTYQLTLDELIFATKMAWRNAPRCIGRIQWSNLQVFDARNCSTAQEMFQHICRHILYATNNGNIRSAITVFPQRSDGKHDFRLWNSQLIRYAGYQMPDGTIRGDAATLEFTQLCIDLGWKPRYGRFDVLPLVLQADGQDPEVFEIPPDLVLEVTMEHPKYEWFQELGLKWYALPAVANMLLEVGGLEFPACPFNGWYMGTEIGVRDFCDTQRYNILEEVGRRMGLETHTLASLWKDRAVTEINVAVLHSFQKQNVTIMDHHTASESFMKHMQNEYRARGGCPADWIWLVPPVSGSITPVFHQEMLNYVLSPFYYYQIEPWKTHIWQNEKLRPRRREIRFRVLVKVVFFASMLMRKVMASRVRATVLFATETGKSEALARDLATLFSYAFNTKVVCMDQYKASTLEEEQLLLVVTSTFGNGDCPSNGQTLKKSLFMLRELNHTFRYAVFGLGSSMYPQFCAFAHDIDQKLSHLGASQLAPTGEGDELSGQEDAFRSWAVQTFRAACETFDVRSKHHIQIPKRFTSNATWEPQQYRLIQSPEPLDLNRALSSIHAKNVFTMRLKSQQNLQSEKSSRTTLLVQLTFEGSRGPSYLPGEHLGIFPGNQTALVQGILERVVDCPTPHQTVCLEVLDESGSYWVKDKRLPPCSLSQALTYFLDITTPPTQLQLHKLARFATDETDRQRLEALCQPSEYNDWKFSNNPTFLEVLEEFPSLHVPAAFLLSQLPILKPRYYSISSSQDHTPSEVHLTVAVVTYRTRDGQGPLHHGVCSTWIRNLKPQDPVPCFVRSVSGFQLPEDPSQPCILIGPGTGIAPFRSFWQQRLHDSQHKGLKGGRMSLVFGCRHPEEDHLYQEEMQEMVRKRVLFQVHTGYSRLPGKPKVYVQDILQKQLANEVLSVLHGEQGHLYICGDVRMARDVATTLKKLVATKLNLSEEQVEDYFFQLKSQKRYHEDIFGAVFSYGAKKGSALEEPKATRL
# [4] = molecular target: Mitogen-activated protein kinase 14 (Homo sapiens, UniProt Q16539); design: species or system Escherichia coli;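 further: inhibition of p38alpha enzyme activity in a biochemical kinase assay, with myelin basic protein serving as substrate; in other assays of this panel Not Active means under 50% inhibition at 10 µM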
# Chain of Mitogen-activated protein kinase 14 (Q16539 whole entry): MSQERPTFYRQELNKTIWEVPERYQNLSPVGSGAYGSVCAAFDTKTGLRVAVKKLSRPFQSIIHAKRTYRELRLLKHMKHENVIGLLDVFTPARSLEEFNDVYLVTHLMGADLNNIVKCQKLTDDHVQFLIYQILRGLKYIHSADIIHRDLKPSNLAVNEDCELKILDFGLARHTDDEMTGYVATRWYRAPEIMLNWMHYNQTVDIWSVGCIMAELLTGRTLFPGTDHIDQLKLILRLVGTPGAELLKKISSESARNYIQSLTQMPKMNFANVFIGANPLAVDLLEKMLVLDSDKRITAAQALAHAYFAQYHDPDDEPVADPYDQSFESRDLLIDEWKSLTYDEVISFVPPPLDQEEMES
# [5] = molecular target: Protein phosphatase 3 catalytic subunit alpha (Homo sapiens, UniProt Q08209); design: species or system Escherichia coli;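 further: inhibition of calcineurin (PP2B) enzyme activity, measured with DiFMUP as the substrate; in other assays of this panel Not Active means under 50% inhibition at 10 µM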
# [6] = molecular target: Epidermal growth factor receptor (Homo sapiens, UniProt P00533); test: DRUGMATRIX: Protein Tyrosine Kinase, EGF Receptor enzyme inhibition (substrate: Poly(Glu:Tyr)); assay type: cell-based, Insect cells; details: insect cells; Not Active = under 50% inhibition at 10 µM
# [7] = molecular target: Voltage-gated inwardly rectifying potassium channel KCNH2 (Homo sapiens, UniProt Q12809); details: hek293; further: in other assays of this panel Not Active means under 50% inhibition at 10 µM
# Chain of Voltage-gated inwardly rectifying potassium channel KCNH2 (Q12809 whole entry): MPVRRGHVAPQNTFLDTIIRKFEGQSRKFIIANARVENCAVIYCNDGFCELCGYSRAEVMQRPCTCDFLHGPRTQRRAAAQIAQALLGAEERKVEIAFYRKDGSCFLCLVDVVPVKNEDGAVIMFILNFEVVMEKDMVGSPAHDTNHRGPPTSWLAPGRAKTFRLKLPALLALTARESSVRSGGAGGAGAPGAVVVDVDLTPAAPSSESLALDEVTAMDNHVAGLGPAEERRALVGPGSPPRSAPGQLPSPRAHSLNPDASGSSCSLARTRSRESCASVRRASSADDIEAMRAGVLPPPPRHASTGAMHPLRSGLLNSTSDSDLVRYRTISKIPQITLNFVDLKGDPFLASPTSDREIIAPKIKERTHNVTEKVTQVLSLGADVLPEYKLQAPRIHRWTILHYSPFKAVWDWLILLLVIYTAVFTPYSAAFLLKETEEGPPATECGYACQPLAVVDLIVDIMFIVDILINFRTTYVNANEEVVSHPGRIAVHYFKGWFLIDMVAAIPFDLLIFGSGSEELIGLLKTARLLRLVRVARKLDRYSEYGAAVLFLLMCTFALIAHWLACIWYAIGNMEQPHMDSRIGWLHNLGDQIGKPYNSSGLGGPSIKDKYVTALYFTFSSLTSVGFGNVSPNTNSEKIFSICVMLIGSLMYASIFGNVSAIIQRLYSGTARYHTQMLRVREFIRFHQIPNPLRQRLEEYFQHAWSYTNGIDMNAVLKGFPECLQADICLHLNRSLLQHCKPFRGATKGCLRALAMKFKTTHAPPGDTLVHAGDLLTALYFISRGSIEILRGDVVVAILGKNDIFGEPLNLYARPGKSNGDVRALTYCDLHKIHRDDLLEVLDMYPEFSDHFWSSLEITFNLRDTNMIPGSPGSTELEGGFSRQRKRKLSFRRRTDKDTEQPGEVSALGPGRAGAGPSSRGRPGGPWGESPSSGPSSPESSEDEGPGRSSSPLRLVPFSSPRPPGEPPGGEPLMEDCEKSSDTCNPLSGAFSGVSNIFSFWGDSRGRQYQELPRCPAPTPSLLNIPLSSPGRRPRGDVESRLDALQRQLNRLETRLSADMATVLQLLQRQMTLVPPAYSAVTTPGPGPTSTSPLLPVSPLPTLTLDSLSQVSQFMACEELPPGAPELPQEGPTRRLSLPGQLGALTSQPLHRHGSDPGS
molecule,measurement,setting,value
ZIRCONIUM(IV) CHLORIDE,IC50,[1],Not Active
same,Ki,[1],Not Active
same,IC50,[2]; cho,Not Active
same,Ki,[2]; cho,Not Active
same,IC50,[3],Not Active
same,Ki,[3],Not Active
same,IC50,[4],Not Active
same,Ki,[4],Not Active
same,IC50,[5],Not Active
same,Ki,[5],Not Active
same,IC50,[6],Not Active
same,Ki,[6],Not Active
same,IC50,[7],Not Active
same,Ki,[7],Not Active
CN(C)C(=O)C(CCN1CCC(O)(c2ccc(Cl)cc2)CC1)(c1ccccc1)c1ccccc1 [LOPERAMIDE],IC50,[1],Not Active
same,IC50,[2]; read-out: IC50,3010 nM
same,Ki,[2]; read-out: Ki,2070 nM
same,IC50,[3],Not Active
same,IC50,[4],Not Active
same,IC50,[5],Not Active
same,IC50,[6],Not Active
same,IC50,[7],Not Active
same,Ki,[7],Not Active
O=C(O)c1ccccc1O [SALICYLIC ACID],IC50,[1],Not Active
same,IC50,[2]; cho,Not Active
same,IC50,[3],Not Active
same,IC50,[4],Not Active
same,IC50,[5],Not Active
same,IC50,[6],Not Active
same,IC50,[7],Not Active
same,Ki,[7],Not Active
